Measured values reported in PubChem BioAssay AID1919010 (Molecular Pharmacology Branch, DTP, NCI, 2023).
pIC50: −log10 of the molar value. “And” between values parts separate entries of the source, which are not always exact repeats. Identical values can stand only once.

Test system: Hs578T complex spheroid growth, percent test/control
Assay: Anticancer human tumor Hs578T cell line growth inhibition [AhR];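 further: luminescent viability signal as a proxy for spheroid growth; spheroids exposed to agents for one week after three days of growth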
Details: for viability, T/C: stronger effect = lower value
Description: Multicellular complex tumor spheroid response to aryl hydrocarbon receptor antagonists in combination with a variety of drugs and investigational agents in selected tumor cell lines
The current study was undertaken to assess response to aryl hydrocarbon receptor antagonists in combination with standard-of-care drugs and investigational agents in solid tumor complex spheroid models. Complex spheroids include a stromal component modeled by human endothelial cells (HUVEC) and fibroblasts modeled by human mesenchymal stem cells (MSCs). The concentration ranges selected for each drug and investigational agent were based upon clinically achievable concentrations if the clinical Cmax of the agent was known.
Compounds. The drugs and investigational agents: BAY 2416964 (NSC825713), GNF351 (NSC835774), CH-223191 (NSC835775), CPI-455 (NSC825282), aza-TdCyd (NSC777586), decitabine (NSC127716), belinostat (NSC758774), entinostat (NSC756642), pevonedistat (NSC761192), tazemetostat (NSC777109), talazoparib (NSC765396), olaparib (NSC753686), selinexor (NSC780203), nedisertib (M3814, NSC802822), bortezomib (NSC756655), venetoclax (NSC766270), doxorubicin (NSC123127), elimusertib (BAY189344, NSC800525), ceralasertib (AZD6738, NSC777638), TAK-243 (NSC785004), alisertib (NSC759677), etoposide (NSC141540), topotecan (NSC609699), eribulin (NSC707389), gemcitabine (NSC613327), carboplatin (NSC241240), cisplatin (NSC119875), and SN-38 (NSC673596) were obtained from the National Cancer Institute (NCI) Developmental Therapeutics Program Chemical Repository (32). The FDA-approved anticancer drug set is available from the Developmental Therapeutics Program at https://dtp.cancer.gov/organization/dscb/obtaining/available plates.htm. […] The stock solutions were prepared in dimethyl sulfoxide (DMSO, Sigma-Aldrich, St. Louis, MO, cat. D2650), except for the platinum compounds which were prepared in saline (Quality Biological, Gaithersburg, MD, cat. 114-055-101), at 800-fold the tested concentration and stored at -70 degrees C prior to their use. All drugs and investigational agents were tested over a range starting from a high concentration at or near the clinical Cmax and decreasing in half-log increments. If the clinical Cmax for an agent had not been determined, the highest concentration tested was 10 microM (Table 1).
Cell Culture. All cells were maintained in an incubator at 37 degrees C and 5% CO2 with 95% humidity. The PDC lines were cultured according to standard operating procedures established by the NCI PDMR (https://pdmr.cancer.gov). Briefly, all PDCs were thawed and cultured in Matrigel-coated flasks prepared with a working solution of 1X Ham's F-12 nutrient mix, without supplementation (Invitrogen, Waltham, MA, cat. 11765054), 100 U/mL penicillin-streptomycin (Invitrogen, cat. 15140122), and 2.5% Matrigel (Corning Inc., Corning, NY, cat. 354248) for the first three passages. All PDCs were cultured in complete DMEM/F-12 media containing advanced DMEM/F-12 (Invitrogen, cat. 12634028), 4.9% defined fetal bovine serum, heat inactivated (HyClone Laboratories Inc., Logan, UT, cat. SH30070.03HI), 389 ng/mL hydrocortisone (Sigma-Aldrich, cat. H4001), 9.7 ng/mL human EGF recombinant protein (Invitrogen, cat. PHG0313), 23.4 microg/mL adenine (Sigma-Aldrich, cat. A2786), 97.3 U/mL penicillin-streptomycin (Invitrogen, cat. 15140122), 1.9 mM L-glutamine (Invitrogen, cat. 25030081), and 9.7 microM Y-27632 dihydrochloride (Tocris Bioscience, Bristol, United Kingdom, cat. 1254). The PDCs were cultured in complete DMEM/F12 media without 10 microM Y-27632 dihydrochloride for at least two passages prior to the screen. The established cell lines NCI-H1341 and […] were cultured in DMEM/F-12, HEPES (Invitrogen, cat. 11330032), 5% defined fetal bovine serum (HyClone Laboratories Inc., cat. SH30070.03), ITS premix universal culture supplement [insulin (5 microg/mL), transferrin (5 microg/mL), and selenious acid (5 ng/mL)] […]

[1] = curve of first compound, second compound 0.1 µM
[2] = curve of first compound, second compound 0.316 µM
[3] = curve of first compound, second compound 1 µM
[4] = curve of first compound, second compound 3.16 µM
[5] = curve of first compound, second compound 10 µM
[6] = second compound 0.1 µM, first compound 0.0316 µM
[7] = second compound 0.1 µM, first compound 0.1 µM
[8] = second compound 0.1 µM, first compound 0.316 µM
[9] = second compound 0.1 µM, first compound 1 µM
[10] = second compound 0.1 µM, first compound 3.16 µM
[11] = second compound 0.1 µM, first compound 10 µM
[12] = second compound 0.316 µM, first compound 0.0316 µM
[13] = second compound 0.316 µM, first compound 0.1 µM
[14] = second compound 0.316 µM, first compound 0.316 µM
[15] = second compound 0.316 µM, first compound 1 µM
[16] = second compound 0.316 µM, first compound 3.16 µM
[17] = second compound 0.316 µM, first compound 10 µM
[18] = second compound 1 µM, first compound 0.0316 µM
[19] = second compound 1 µM, first compound 0.1 µM
[20] = second compound 1 µM, first compound 0.316 µM
[21] = second compound 1 µM, first compound 1 µM
[22] = second compound 1 µM, first compound 3.16 µM
[23] = second compound 1 µM, first compound 10 µM
[24] = second compound 3.16 µM, first compound 0.0316 µM
[25] = second compound 3.16 µM, first compound 0.1 µM
[26] = second compound 3.16 µM, first compound 0.316 µM
[27] = second compound 3.16 µM, first compound 1 µM
[28] = second compound 3.16 µM, first compound 3.16 µM
[29] = second compound 3.16 µM, first compound 10 µM
[30] = second compound 10 µM, first compound 0.0316 µM
[31] = second compound 10 µM, first compound 0.1 µM
[32] = second compound 10 µM, first compound 0.316 µM
[33] = second compound 10 µM, first compound 1 µM
[34] = second compound 10 µM, first compound 3.16 µM
[35] = second compound 10 µM, first compound 10 µM

Row | pIC50 [1] | pIC50 [2] | pIC50 [3] | pIC50 [4] | pIC50 [5] | Compound | viability, T/C [6] | viability, T/C [7] | viability, T/C [8] | viability, T/C [9] | viability, T/C [10] | viability, T/C [11] | viability, T/C [12] | viability, T/C [13] | viability, T/C [14] | viability, T/C [15] | viability, T/C [16] | viability, T/C [17] | viability, T/C [18] | viability, T/C [19] | viability, T/C [20] | also measured
1 |  |  |  |  |  | CC[C@@]1(O)C(=O)OCc2c1cc1n(c2=O)Cc2cc3c(CN(C)C)c(O)ccc3nc2-1 |  |  |  |  |  |  |  |  |  |  |  |  |  |  |  | viability, T/C (compound 0.000316 µM): 94.7% and 97.6% and 107%; viability, T/C (compound 0.001 µM): 106% and 98.2% and 103%; viability, T/C (compound 0.00316 µM): 105% and 90.3% and 95.3%; viability, T/C (compound 0.01 µM): 96.5% and 72.5% and 96.3%; viability, T/C (compound 0.0316 µM): 76.8% and 64.2% and 77.9%; viability, T/C (compound 0.1 µM): 69.3% and 71.8% and 68.2%; pIC50 (curve of compound): < 7.00
2 | 5.26 | 5.31 | 5.22 | 5.38 | 5.31 | COc1ccc([C@@H](O)c2cc(-c3ncnc4cc(N5CCOCC5)ccc34)c(F)cc2Cl)nn1 + CC(CO)NC(=O)c1cc(-c2ccc(Cl)cc2)nn(-c2cnn(C)c2)c1=O | 109% | 111% | 105% | 89.2% | 64.2% | 35.7% | 113% | 115% | 104% | 87.2% | 57.8% | 36.7% | 117% | 112% | 102% | viability, T/C [21]: 85.8%; viability, T/C [22]: 65.1%; viability, T/C [23]: 38.3%; viability, T/C [24]: 111%; viability, T/C [25]: 106%; viability, T/C [26]: 102%; viability, T/C [27]: 84%; viability, T/C [28]: 52.9%; viability, T/C [29]: 38.7%; viability, T/C [30]: 95.6%; viability, T/C [31]: 97.5%; viability, T/C [32]: 99.9%; viability, T/C [33]: 82.5%; viability, T/C [34]: 56.9%; viability, T/C [35]: 39.5%
3 | < 5.00 | < 5.00 | < 5.00 | < 5.00 | < 5.00 | CC1(C)CCC(CN2CCN(c3ccc(C(=O)NS(=O)(=O)c4ccc(NCC5CCOCC5)c([N+](=O)[O-])c4)c(Oc4cnc5[nH]ccc5c4)c3)CC2)=C(c2ccc(Cl)cc2)C1 + Cc1ccccc1N=Nc1ccc(NC(=O)c2ccnn2C)c(C)c1 | 117% | 106% | 100% | 101% | 97.3% | 65.1% | 106% | 106% | 113% | 109% | 95.9% | 65.8% | 103% | 105% | 108% | viability, T/C [21]: 94.8%; viability, T/C [22]: 97.2%; viability, T/C [23]: 75.4%; viability, T/C [24]: 94.7%; viability, T/C [25]: 95.9%; viability, T/C [26]: 102%; viability, T/C [27]: 90.3%; viability, T/C [28]: 89.5%; viability, T/C [29]: 69.3%; viability, T/C [30]: 66.1%; viability, T/C [31]: 65.3%; viability, T/C [32]: 65.9%; viability, T/C [33]: 68.9%; viability, T/C [34]: 67.2%; viability, T/C [35]: 64.3%
4 | 5.88 | 5.89 | 5.83 | 5.83 | 5.88 | Nc1ccccc1NC(=O)c1ccc(CNC(=O)OCc2cccnc2)cc1 + Cc1ccccc1N=Nc1ccc(NC(=O)c2ccnn2C)c(C)c1 | 100% | 90.9% | 85.2% | 62.2% | 16.1% | 0.74% | 100% | 86.2% | 82.5% | 62.1% | 16.4% | 1.06% | 97.6% | 95.2% | 95.5% | viability, T/C [21]: 66.4%; viability, T/C [22]: 17.6%; viability, T/C [23]: 1.6%; viability, T/C [24]: 89.5%; viability, T/C [25]: 79.6%; viability, T/C [26]: 93.3%; viability, T/C [27]: 66.2%; viability, T/C [28]: 16.9%; viability, T/C [29]: 1.24%; viability, T/C [30]: 61%; viability, T/C [31]: 62.5%; viability, T/C [32]: 64.9%; viability, T/C [33]: 59.5%; viability, T/C [34]: 19.6%; viability, T/C [35]: 1.69%
